Test results taken from patent US20080233251A1, “Method and Apparatus for Sterilizing Containers” (priority 2005, published 2008).
Several values for one entry are separate records, joined by “and”; a condition that tells them apart may be missing. Equal entries are not always repeated. Where two headings read alike, the source gives them in different places.

Assays:
Type in all cases: cell-based
[1] = test system: B. subtilis var. globigii (ATCC 9372); conditions: surviving count per replicate strip (replicates 1-5), 50° C., inoculum 10^6
Text: (§1) The following examples illustrate the efficacy of the method of the present invention. The experiments were designed to identify the conditions optimal for polymer sterilization and also explore the boundary areas to determine the conditions limiting the efficacy of the treatment. Each polymer strip was inoculated by drop spotting approximately 100 micro-liters and coating the surface by swabbing the surface of the polyethylene strip. The culture was allowed to dry before sterilization. Each strip of polyethylene was treated by vigorously agitating the strip in the appropriate treatment solutions. Each treated polymer strip was then treated with catalase to inactivate residual peroxide, swabbed and plated using TGE incubated at 35° C. for two days.
In Table One, a NaOH control, an inoculated untreated control, and two methods of the present invention were measured and the results set forth in Table 1. Five replicate polymer strips were used for each of the two methods of the present invention. A log measurement value is provided below each of the non-log values. The first method uses hydrogen peroxide first and then an alkaline solution of sodium hydroxide. The second method uses an alkaline solution of sodium hydroxide first and then hydrogen peroxide. The sterilization was conducted at 50° C.

[2] = test system: B. subtilis var. globigii (ATCC 9372); conditions: for bactericidal effect (in words): text on Table Two; for Average: average of the logCFU/Swab replicates; for logCFU/Swab: log of surviving count per replicate (1-5); for logCFU/Swab / CFU/Swab: unagitated; for CFU/Swab: surviving count per replicate (1-5), contact times in label
Experimental: as §1, with “The” for “The following examples illustrate the efficacy of the method of the present invention. The”
A log measurement value is provided below each of the non-log values. The sterilization was conducted at 50° C.

[3] = test system: B. subtilis var. globigii (ATCC 9372); conditions: 35° C., 30 seconds; for CFU/Swab: surviving count per replicate (1-5)
Experimental: as §1, with “The” for “The following examples illustrate the efficacy of the method of the present invention. The”
In Table Three, a solution of 0.1 Normal potassium hydroxide (KOH) was utilized with a solution of 3% hydrogen peroxide at a temperature of 35° C. for 30 seconds.

Compound | bactericidal effect (in words) ([2]; 50° C.) | Average [2] | logCFU/Swab ([2]; 50° C.) | CFU/Swab ([2]; 50° C.) | CFU/Swab [3] | also measured
[Na+].[OH-] [1M NaOH Control, sodium hydroxide] | – | – | – | – | – | CFU/Swab [1]: 5,700 CFU/Swab and 210 CFU/Swab
OO [50° C. 30 s 3.5% H2O2 10 s catalase, hydrogen peroxide] | no effect | 6.52 | 6.20 logCFU/Swab and 6.60 logCFU/Swab and 6.70 logCFU/Swab | 1,600,000 CFU/Swab and 4,200,000 CFU/Swab and 4,000,000 CFU/Swab and 3,000,000 CFU/Swab and 5,000,000 CFU/Swab | – | Log reduction ([2]; versus inoculated untreated control (average 6.66)): 0.14
OO [50° C. 30 s 35% H2O2 10 s catalase, hydrogen peroxide] | – | 2.30 | 1.60 logCFU/Swab and 1.30 logCFU/Swab | 40 CFU/Swab and 570 CFU/Swab and 20 CFU/Swab and 270 CFU/Swab and 2700 CFU/Swab | – | log inactivation per 10 seconds of treatment ([2]; rate of kill per unit time, 50° C.): 1.45 log per 10 seconds
OO [H2O2 Control, hydrogen peroxide] | – | – | – | – | 5,200,000 CFU/Swab | –
[Na+].[OH-] [50° C. 10 s 0.25M NaOH Control, sodium hydroxide] | no bacteriocidal effect | 6.75 | 6.80 logCFU/Swab and 6.90 logCFU/Swab | 6,300,000 CFU/Swab and 3,800,000 CFU/Swab and 7,900,000 CFU/Swab and 5,400,000 CFU/Swab | – | –
catalase [Catalase Control] | – | – | – | – | 2,500,000 CFU/Swab | logCFU/Swab ([3]; log of surviving count per replicate (1-5)): 6.40 logCFU/Swab
